Reference: patent US20230143612A1 (Arbutus Biopharma Corporation, priority 2020, published 2023)

These molecules were tested against PD-L1 His protein / PD-1 Fc protein (Homo sapiens, UniProt Q9NZQ7) (assay: HTRF Assay (PD-1/PD-L1 interaction)). Conditions: PD-L1 His 6 nM, PD-1 Fc 6 nM.
Type: binding
Procedure, shortened: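 Compounds tested from 20 μM down to 0.001 μM (3-fold) against 6 nM PD-L1 His and 6 nM PD-1 Fc, 15 min room temperature incubation. Detection after 1 h at room temperature with Tb cryptate anti-6HIS and XL665 anti-human IgG reagents (mixture at 0.35 nM and 6.7 nM), HTRF signal.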

PD-L1 His protein / PD-1 Fc protein, sequence (Q9NZQ7 19-238 limits assumed): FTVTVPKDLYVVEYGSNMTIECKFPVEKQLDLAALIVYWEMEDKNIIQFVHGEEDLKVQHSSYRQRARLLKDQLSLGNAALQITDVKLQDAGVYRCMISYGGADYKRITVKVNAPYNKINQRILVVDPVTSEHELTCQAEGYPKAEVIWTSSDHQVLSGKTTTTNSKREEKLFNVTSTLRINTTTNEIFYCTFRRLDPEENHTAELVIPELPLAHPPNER

Q: How did the IC50 turn out when COc1nc(-c2cccc(-c3cccc(-c4ccn5c(=O)c(CNC[C@@H](O)CC(=O)N(C)C)cnc5c4)c3Cl)c2Cl)cc(F)c1CNC[C@@H]1CCC(=O)N1 [Example 336, (3S)-4-[[8-[2-Chloro-3-[2-chloro-3-[4-fluoro-6-methoxy-5-[[[(2S)-5-oxopyrrolidin-2-yl]methylamino]methyl]-2-pyridyl]phenyl]phenyl]-4-oxo-pyrido[1,2-a]pyrimidin-3-yl]methylamino]-3-hydroxy-N,N-dimethyl-butanamide] was run?
A: Its IC50 is 0.1 nM.

Q: With COc1cc(Cl)c(CNC[C@H]2CCC(=O)N2)c(-c2cccc(-c3cccc(-c4ccn5c(=O)c(CNC[C@@H]6CCC(=O)N6)cnc5c4)c3Cl)c2Cl)n1 [Example 337, 8-[2-chloro-3-[2-chloro-3-[4-chloro-6-methoxy-3-[[[(2R)-5-oxopyrrolidin-2-yl]methylamino]methyl]-2-pyridyl]phenyl]phenyl]-3-[[[(2S)-5-oxopyrrolidin-2-yl]methylamino]methyl]pyrido[1,2-a]pyrimidin-4-one] as the molecule, how does the IC50 read?
A: Its IC50 is 47 nM.

Q: COc1nc(-c2cccc(-c3cccc(-c4ccc5nc(CNC[C@@H]6CCC(=O)N6)cn5n4)c3Cl)c2Cl)ccc1CNC[C@@H]1CCC(=O)N1 [Example 338, (5S)-5-[[[6-[2-Chloro-3-[2-chloro-3-[2-[[[(2S)-5-oxopyrrolidin-2-yl]methylamino]methyl]imidazo[1,2-b]pyridazin-6-yl]phenyl]phenyl]-2-methoxy-3-pyridyl]methylamino]methyl]pyrrolidin-2-one] was tested. Which IC50 did it give?
A: The IC50 was 0.3 nM.

Q: How did the IC50 turn out when COc1nc(-c2cccc(-c3cccc(-c4ccc5nc(CN(C)CCO)cn5n4)c3Cl)c2Cl)ccc1CN(C)CCO [Example 339, 2-[[6-[2-Chloro-3-[2-chloro-3-[2-[[2-hydroxyethyl(methyl)amino]methyl]imidazo[1,2-b]pyridazin-6-yl]phenyl]phenyl]-2-methoxy-3-pyridyl]methyl-methyl-amino]etanol] was run?
A: Its IC50 is 26 nM.

Q: For COc1nc(-c2cccc(-c3cccc(-c4ccc5nc(CNC[C@H](C)O)cn5n4)c3Cl)c2Cl)ccc1CNC[C@H](C)O [Example 340, (2S)-1-[[6-[2-Chloro-3-[2-chloro-3-[2-[[[(2S)-2-hydroxypropyl]amino]methyl]imidazo[1,2-b]pyridazin-6-yl]phenyl]phenyl]-2-methoxy-3-pyridyl]methylamino]propan-2-ol], which IC50 is on record?
A: The IC50 was 3.5 nM.

Q: Which IC50 does the source give for CNC(=O)C(C)(C)NCc1cc(=O)n2ccc(-c3cccc(-c4cccc(-c5ccc(CNC[C@@H]6CCC(=O)N6)c(OC)n5)c4Cl)c3Cl)cc2n1 [Example 341, (S)-2-(((8-(2,2′-Dichloro-3′-(6-methoxy-5-((((5-oxopyrrolidin-2-yl)methyl)amino)methyl)pyridin-2-yl)-[1,1′-biphenyl]-3-yl)-4-oxo-4H-pyrido[1,2-a]pyrimidin-2-yl)methyl)amino)-N,2-dimethylpropanamide] here?
A: Its IC50 is 0.1 nM.

Q: For COc1nc(-c2cccc(-c3cccc(-c4ccn5c(=O)cc(CN6C[C@@H](O)CC6=O)nc5c4)c3Cl)c2Cl)ccc1CNC[C@@H]1CCC(=O)N1 [Example 342, 8-(2,2′-Dichloro-3′-(6-methoxy-5-(((((S)-5-oxopyrrolidin-2-yl)methyl)amino)methyl)pyridin-2-yl)-[1,1′-biphenyl]-3-yl)-2-(((S)-4-hydroxy-2-oxopyrrolidin-1-yl)methyl)-4H-pyrido[1,2-a]pyrimidin-4-one], which IC50 is on record?
A: The IC50 was 0.1 nM.

Q: Which IC50 does the source give for COC(=O)C1CN(Cc2cc(=O)n3ccc(-c4cccc(-c5cccc(-c6ccc(CNC[C@@H]7CCC(=O)N7)c(OC)n6)c5Cl)c4Cl)cc3n2)C1 [Example 343, (S)-Methyl 1-((8-(2,2′-dichloro-3′-(6-methoxy-5-((((5-oxopyrrolidin-2-yl)methyl)amino)methyl)pyridin-2-yl)-[1,1′-biphenyl]-3-yl)-4-oxo-4H-pyrido[1,2-a]pyrimidin-2-yl)methyl) azetidine-3-carboxylate] here?
A: The IC50 was 0.1 nM.

Q: With COc1nc(-c2cccc(-c3cccc(-c4ccc5c(c4)CCCNC5)c3Cl)c2Cl)ccc1CNC[C@@H]1CCC(=O)N1 [Example 344, (S)-5-((((6-(2,2′-Dichloro-3′-(2,3,4,5-tetrahydro-1H-benzo[c]azepin-7-yl)-[1,1′-biphenyl]-3-yl)-2-methoxypyridin-3-yl)methyl)amino)methyl)pyrrolidin-2-one] as the molecule, how does the IC50 read?
A: Its IC50 is 570 nM.

Q: With COc1nc(-c2cccc(-c3cccc(-c4ccn5c(=O)c(CNCC(C)(C)OC)cnc5c4)c3Cl)c2Cl)ccc1CNC[C@@H]1CCC(=O)N1 [Example 345, (S)-8-(2,2′-Dichloro-3′-(6-methoxy-5-((((5-oxopyrrolidin-2-yl)methyl)amino)methyl)pyridin-2-yl)-[1,1′-biphenyl]-3-yl)-3-(((2-methoxy-2-methylpropyl)amino)methyl)-4H-pyrido[1,2-a]pyrimidin-4-one] as the molecule, how does the IC50 read?
A: The IC50 was 42 nM.

Q: Which IC50 does the source give for COc1nc(-c2cccc(-c3cccc(-c4ccn5c(=O)c(CN6CC7(CC(O)C7)C6)cnc5c4)c3Cl)c2Cl)ccc1CNC[C@@H]1CCC(=O)N1 [Example 346, (S)-8-(2,2′-Dichloro-3′-(6-methoxy-5-((((5-oxopyrrolidin-2-yl)methyl)amino)methyl)pyridin-2-yl)-[1,1′-biphenyl]-3-yl)-3-((6-hydroxy-2-azaspiro[3.3]heptan-2-yl)methyl)-4H-pyrido[1,2-a]pyrimidin-4-one] here?
A: The IC50 was 1300 nM.

Q: For COc1nc(-c2cccc(-c3cccc(-c4ccn5c(=O)c(CN6C[C@@H](O)[C@H](O)C6)cnc5c4)c3Cl)c2Cl)ccc1CNC[C@@H]1CCC(=O)N1 [Example 347, 8-(2,2′-Dichloro-3′-(6-methoxy-5-(((((S)-5-oxopyrrolidin-2-yl)methyl)amino)methyl)pyridin-2-yl)-[1,1′-biphenyl]-3-yl)-3-(((3R,4R)-3,4-dihydroxypyrrolidin-1-yl)methyl)-4H-pyrido[1,2-a]pyrimidin-4-one], which IC50 is on record?
A: Its IC50 is 530 nM.

Q: For COc1nc(-c2cccc(-c3cccc(-c4ccn5c(=O)c(CN[C@H]6C[C@](C)(O)C6)c(OC)nc5c4)c3Cl)c2Cl)ccc1CNC[C@@H]1CCC(=O)N1 [Example 348, 8-(2,2′-Dichloro-3′-(6-methoxy-5-(((((S)-5-oxopyrrolidin-2-yl)methyl)amino)methyl)pyridin-2-yl)-[1,1′-biphenyl]-3-yl)-3-((((1r,3r)-3-hydroxy-3-methylcyclobutyl)amino)methyl)-2-methoxy-4H-pyrido[1,2-a]pyrimidin-4-one], which IC50 is on record?
A: The IC50 was 2.2 nM.

Q: How did the IC50 turn out when CNC(=O)C1(NCc2cc(=O)n3ccc(-c4cccc(-c5cccc(-c6ccc(CNC[C@@H]7CCC(=O)N7)c(OC)n6)c5Cl)c4Cl)cc3n2)CC1 [Example 349, (S)-1-(((8-(2,2′-Dichloro-3′-(6-methoxy-5-((((5-oxopyrrolidin-2-yl)methyl)amino)methyl)pyridin-2-yl)-[1,1′-biphenyl]-3-yl)-4-oxo-4H-pyrido[1,2-a]pyrimidin-2-yl)methyl)amino)-N-methylcyclopropanecarboxamide] was run?
A: Its IC50 is 0.2 nM.

Q: Which IC50 does the source give for COc1nc(-c2cccc(-c3cccc(-c4cc5c(=O)n(C)c(CNC[C@H](C)O)nn5c4)c3Cl)c2Cl)ccc1CNC[C@@H]1CCC(=O)N1 [Example 350, 6-(2,2′-Dichloro-3′-(6-methoxy-5-(((((S)-5-oxopyrrolidin-2-yl)methyl)amino)methyl)pyridin-2-yl)-[1,1′-biphenyl]-3-yl)-2-((((S)-2-hydroxypropyl)amino)methyl)-3-methylpyrrolo[2,1-f][1,2,4]triazin-4(3H)-one] here?
A: Its IC50 is 0.1 nM.

Q: For COc1nc(-c2cccc(-c3cccc(-c4cc5c(=O)n(C)c(CNCCO)nn5c4)c3Cl)c2Cl)ccc1CNC[C@@H]1CCC(=O)N1 [Example 351, (S)-6-(2,2′-Dichloro-3′-(6-methoxy-5-((((5-oxopyrrolidin-2-yl)methyl)amino)methyl)pyridin-2-yl)-[1,1′-biphenyl]-3-yl)-2-(((2-hydroxyethyl)amino)methyl)-3-methylpyrrolo[2,1-f][1,2,4]triazin-4(3H)-one], which IC50 is on record?
A: Its IC50 is 200 nM.

Q: COc1nc(-c2cccc(-c3cccc(-c4ccc5nc(CNCCO)cn5n4)c3Cl)c2Cl)ccc1CNC[C@@H]1CCC(=O)N1 [Example 352, (5S)-5-[[[6-[2-Chloro-3-[2-chloro-3-[2-[(2-hydroxyethylamino)methyl]imidazo[1,2-b]pyridazin-6-yl]phenyl]phenyl]-2-methoxy-3-pyridyl]methylamino]methyl]pyrrolidin-2-one] was tested. Which IC50 did it give?
A: Its IC50 is 0.5 nM.

Q: How did the IC50 turn out when COc1nc(-c2cccc(-c3cccc(-c4ccc5nc(CNC[C@H](C)O)cn5n4)c3Cl)c2Cl)ccc1CNC[C@@H]1CCC(=O)N1 [Example 354, (5S)-5-[[[6-[2-Chloro-3-[2-chloro-3-[2-[[[(2S)-2-hydroxypropyl]amino]methyl]imidazo[1,2-b]pyridazin-6-yl]phenyl]phenyl]-2-methoxy-3-pyridyl]methylamino]methyl]pyrrolidin-2-one] was run?
A: The IC50 was 0.8 nM.

Q: COc1nc(-c2cccc(-c3cccc(-c4ccc5nc(CNC[C@@H](O)CC(=O)N(C)C)cn5n4)c3Cl)c2Cl)ccc1CNC[C@@H]1CCC(=O)N1 [Example 355, (3S)-4-[[6-[2-Chloro-3-[2-chloro-3-[6-methoxy-5-[[[(2S)-5-oxopyrrolidin-2-yl]methylamino]methyl]-2-pyridyl]phenyl]phenyl]imidazo[1,2-b]pyridazin-2-yl]methylamino]-3-hydroxy-N,N-dimethyl-butanamide] was tested. Which IC50 did it give?
A: The IC50 was 0.1 nM.

Q: How did the IC50 turn out when COc1nc(-c2cccc(-c3cccc(-c4ccc5nc(CNC[C@@H]6CCC(=O)N6)cn5c4)c3Cl)c2Cl)ccc1CNC[C@@H]1CCC(=O)N1 [Example 356, (5S)-5-[[[6-[2-Chloro-3-[2-chloro-3-[2-[[[(2S)-5-oxopyrrolidin-2-yl]methylamino]methyl]imidazo[1,2-a]pyridin-6-yl]phenyl]phenyl]-2-methoxy-3-pyridyl]methylamino]methyl]pyrrolidin-2-one] was run?
A: The IC50 was 86 nM.

Q: Which IC50 does the source give for COc1nc(-c2cccc(-c3cccc(-c4ccn5cc(CNC[C@@H]6CCC(=O)N6)nc5c4)c3Cl)c2Cl)ccc1CNC[C@@H]1CCC(=O)N1 [Example 357, (5S)-5-[[[6-[2-Chloro-3-[2-chloro-3-[2-[[[(2S)-5-oxopyrrolidin-2-yl]methylamino]methyl]imidazo[1,2-a]pyridin-7-yl]phenyl]phenyl]-2-methoxy-3-pyridyl]methylamino]methyl]pyrrolidin-2-one] here?
A: The IC50 was 50 nM.
